Source: patent publication US20210330611A1, “THERAPY FOR NEUROLOGICAL DISEASES/DISORDERS” (priority 2020, published 2021)
Structures can show the parent of a compound that is named as a salt. Where two headings read alike, the source gives them in different places.

Legend:
[1] = system: fibrin-induced microglia activation; test: Image-based assay of fibrin-induced microglia activation (HTS and dose response); assay type: cell-based, rat; conditions: for inhibition at 10 µM: Rattus norvegicus, Microglia, read-out: Fibrin % inhibition; for inhibition at 10 µM / Fibrin % inhibition: primary microglia HTS
[2] = system: LPS-induced microglia activation; test: Image-based assay of LPS-induced microglia activation (HTS and dose response); assay type: cell-based, rat; conditions: for inhibition at 10 µM: Rattus norvegicus, Microglia, read-out: LPS % inhibition; for inhibition at 10 µM / LPS % inhibition: primary microglia HTS
[3] = system: fibrin- and LPS-induced microglia activation; test: cells; assay type: cell-based, rat
primary rat microglia [4] = test: Cell toxicity (dead cells, size <150 μm2) in LPS assay; conditions: for LPS % cell toxicity: primary microglia HTS; for IC50: read-out: Cell Toxicity IC50 (uM) [LPS assay]
primary rat microglia [5] = test: Cell toxicity (dead cells, size <150 μm2) in coated fibrin (cFib) assay; conditions: for Fibrin % cell toxicity: primary microglia HTS; for IC50: read-out: Cell Toxicity IC50 (uM) [cFib assay];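 as to Fibrin % cell toxicity: share of dead cells sized under 150 µm2 at 10 µM in fibrin-stimulated microglia HTS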
[6] = fibrin stimulation, increased cell size (>800 μm^2) as marker of activation
[7] = 48 h, LPS stimulation, increased cell size (>800 μm^2) as marker of activation
[8] = quadrant by fibrin and LPS inhibition in HTS of 1907 compounds
[9] = LPS stimulation, decreased size (<150 μm^2) as marker of toxicity
[10] = fibrin stimulation, decreased size (<150 μm^2) as marker of toxicity
[11] = HTS of 1907 compounds, quadrant by fibrin and LPS inhibition
[12] = LPS stimulation, increased cell size (>800 μm^2) as marker of activation
[13] = fibrin stimulation, activation = cell size >800 μm2
[14] = 48 h, LPS stimulation, activation = cell size >800 μm2
[15] = LPS stimulation, toxicity = cell size <150 μm2
[16] = fibrin stimulation, toxicity = cell size <150 μm2

Question: How did the inhibition at 10 µM [1, 6] turn out when CC1(C)O[C@@H]2C[C@H]3[C@@H]4CCC5=CC(=O)C=C[C@]5(C)[C@H]4[C@@H](O)C[C@]3(C)[C@]2(C(=O)CO)O1 [Desonide] was run?
Answer: Its inhibition at 10 µM is 108%.

Question: What about the inhibition at 10 µM [2, 7] of the same compound?
Answer: The inhibition at 10 µM was 112%.

Question: What about the “Quadrant (FIG. 5b)” value [3, 8] of the same compound?
Answer: The value was “Q2”.

Question: What about the “LPS % cell toxicity” value (primary rat microglia [4]; [9]) of the same compound?
Answer: Its value is 5%.

Question: What about the “Fibrin % cell toxicity” value (primary rat microglia [5]; [10]) of the same compound?
Answer: Its value is 17%.

Question: For Viomycin Sulfate, which Fibrin % inhibition ([1]; 10 μM, fibrin-stimulated, cell size >800 μm^2 as marker of activation) is on record?
Answer: Its Fibrin % inhibition is −7%.

Question: What about the LPS % inhibition ([2]; 10 μM, LPS-stimulated, cell size >800 μm^2 as marker of activation) of the same compound?
Answer: The LPS % inhibition was 19%.

Question: And the “Quadrant (FIG. 5b)” value [3, 11]?
Answer: The value was “Q4”.

Question: What about the “LPS % cell toxicity” value (primary rat microglia [4]; 10 μM, LPS assay, cell size <150 μm^2 as marker of toxicity) of the same compound?
Answer: Its value is 0%.

Question: What about the “Fibrin % cell toxicity” value (primary rat microglia [5]; 10 μM, fibrin assay, cell size <150 μm^2 as marker of toxicity) of the same compound?
Answer: Its value is 0%.

Question: What does the source list for Cc1cc(C(C)(C)C)c(O)c(C)c1CC1=NCCN1 [Oxymetazoline]?
Answer: inhibition at 10 µM [1, 6]: -13%; inhibition at 10 µM [2, 7]: 20%; Quadrant (FIG. 5b) [3, 8]: Q4; LPS % cell toxicity (primary rat microglia [4]; [9]): 0%; Fibrin % cell toxicity (primary rat microglia [5]; [10]): 1%

Question: Which inhibition at 10 µM [1, 6] does the source give for COc1ccc(Cc2nccc3cc(OC)c(OC)cc23)cc1OC [Papaverine] here?
Answer: The inhibition at 10 µM was 12%.

Question: And the inhibition at 10 µM [2, 7]?
Answer: The inhibition at 10 µM was 27%.

Question: And the “Quadrant (FIG. 5b)” value [3, 8]?
Answer: Its value is “Q4”.

Question: And the “LPS % cell toxicity” value (primary rat microglia [4]; [9])?
Answer: The value was 0%.

Question: What about the “Fibrin % cell toxicity” value (primary rat microglia [5]; [10]) of the same compound?
Answer: Its value is 0%.

Question: How did the inhibition at 10 µM [1, 6] turn out when C[N+]1(C)[C@@H]2CC[C@H]1C[C@@H](OC(=O)C(CO)c1ccccc1)C2 (some centres unmarked) [Methylatropine Nitrate] was run?
Answer: Its inhibition at 10 µM is -2%.

Question: And the inhibition at 10 µM [2, 7]?
Answer: Its inhibition at 10 µM is 14%.

Question: What about the “Quadrant (FIG. 5b)” value [3, 8] of the same compound?
Answer: Its value is “Q4”.

Question: And the “LPS % cell toxicity” value (primary rat microglia [4]; [9])?
Answer: The value was 0%.

Question: What about the “Fibrin % cell toxicity” value (primary rat microglia [5]; [10]) of the same compound?
Answer: Its value is 1%.

Question: How did the Fibrin % inhibition [1, 6] turn out when CC(=O)OC[C@H]1O[C@@H]([S-])[C@H](OC(C)=O)[C@@H](OC(C)=O)[C@@H]1OC(C)=O.CCP(CC)CC.[Au+] [Auranofin] was run?
Answer: Its Fibrin % inhibition is 106%.

Question: And the LPS % inhibition [2, 12]?
Answer: Its LPS % inhibition is 106%.

Question: And the “Quadrant (FIG. 5b)” value [3, 8]?
Answer: Its value is “Q2”.

Question: And the “LPS % cell toxicity” value (primary rat microglia [4]; [9])?
Answer: The value was 98%.

Question: And the “Fibrin % cell toxicity” value (primary rat microglia [5]; [10])?
Answer: Its value is 94%.

Question: For O=C(O)P(=O)(O)O [Foscarnet], which inhibition at 10 µM [1, 13] is on record?
Answer: The inhibition at 10 µM was 5%.

Question: What about the inhibition at 10 µM [2, 14] of the same compound?
Answer: The inhibition at 10 µM was 10%.

Question: What about the “Quadrant (FIG. 5b)” value [3, 8] of the same compound?
Answer: Its value is “Q4”.

Question: What about the “LPS % cell toxicity” value (primary rat microglia [4]; [15]) of the same compound?
Answer: Its value is 0%.

Question: What about the “Fibrin % cell toxicity” value (primary rat microglia [5]; [16]) of the same compound?
Answer: The value was 1%.

Question: For CCC(=O)OCC(=O)[C@@]1(OC(=O)CC)[C@H](C)C[C@H]2[C@H]3[C@H]([C@@H](O)C[C@@]21C)[C@@]1(C)C=CC(=O)C=C1C[C@H]3Cl [Alclometazone dipropionate, reference compound], which “Fibrin Selectivity (LOG10)” value [1] is on record?
Answer: Its value is 3.33.

Question: And the IC50 ([1]; Table 1, dose response 0.001-20 μM, triplicates, primary rat microglia, 48 h, read-out: Fibrin IC50)?
Answer: Its IC50 is < 0.001 µM.

Question: And the IC50 ([1]; Table 3, read-out: Fibrin IC50 (uM) (Suppl. Table 7))?
Answer: Its IC50 is < 0.001 µM.

Question: And the IC50 ([1]; Table 6, read-out: Fibrin IC50 (uM) (Suppl. Table 7))?
Answer: The IC50 was < 0.001 µM.

Question: What about the IC50 ([1]; dose response, fibrin-induced microglia activation, read-out: Fibrin IC50) of the same compound?
Answer: The IC50 was < 0.001 µM.

Question: And the “Fibrin Selectivity (LOG10)” value ([1]; fibrin vs LPS, LOG10, Table 6)?
Answer: Its value is 3.33.

Question: And the “Fibrin Selectivity” value ([1]; fibrin vs LPS, Table 6)?
Answer: The value was 2153.

Question: What about the IC50 ([1]; fibrin-induced microglia activation, dose response, read-out: Fibrin IC50 (uM) (Suppl. Table 7)) of the same compound?
Answer: The IC50 was < 0.001 µM.

Question: What about the “Fibrin Selectivity” value ([1]; listed as Alclometazone Dipropion) of the same compound?
Answer: Its value is ≥ 2153.

Question: And the “Fibrin Selectivity” value ([1]; listed as Alclometazone Dipropionate)?
Answer: The value was 2153.

Question: And the Fibrin % inhibition [1, 6]?
Answer: The Fibrin % inhibition was 105%.

Question: And the IC50 ([2]; LPS-induced microglia activation, dose response, read-out: LPS IC50 (uM) (Suppl. Table 7))?
Answer: Its IC50 is 2 µM.

Question: What about the IC50 ([2]; Table 1, dose response 0.001-20 μM, triplicates, primary rat microglia, 48 h, read-out: LPS IC50) of the same compound?
Answer: The IC50 was 2 µM.

Question: And the IC50 ([2]; Table 3, read-out: LPS IC50 (uM) (Suppl. Table 7))?
Answer: The IC50 was 2 µM.

Question: And the IC50 ([2]; Table 6, read-out: LPS IC50 (uM) (Suppl. Table 7))?
Answer: The IC50 was 2 µM.

Question: What about the IC50 ([2]; dose response, LPS-induced microglia activation, read-out: LPS IC50) of the same compound?
Answer: The IC50 was 2 µM.

Question: What about the LPS % inhibition [2, 12] of the same compound?
Answer: Its LPS % inhibition is 82%.

Question: And the Hit ([3]; HTS hit classification)?
Answer: Its Hit is “HIT (Hits were defined as molecules that exhibited greater than 50% inhibition of either fibrin or LPS activation)”.

Question: And the “Quadrant (FIG. 5b)” value [3, 11]?
Answer: The value was “Q2”.

Question: And the “Quadrant (FIG. 5b)” value ([3]; Table 1, screen at 10 μM)?
Answer: Its value is “Q2”.

Question: What about the “Cherry-picked Hit (Suppl. Table 7)” value ([3]; Table 3) of the same compound?
Answer: The value was “HIT (Hits were defined as molecules that exhibited greater than 50% inhibition of either fibrin or LPS activation)”.

Question: What about the “Quadrant (FIG. 5b)” value ([3]; Table 3, screen at 10 μM) of the same compound?
Answer: Its value is “Q2”.

Question: What about the “Cherry-picked Hit (Suppl. Table 7)” value ([3]; hit classification in microglia HTS) of the same compound?
Answer: The value was “HIT (Hits were defined as molecules that exhibited greater than 50% inhibition of either fibrin or LPS activation)”.

Question: And the “Cherry-picked Hit (Suppl. Table 7)” value ([3]; microglia HTS, Table 6)?
Answer: The value was “HIT (Hits were defined as molecules that exhibited greater than 50% inhibition of either fibrin or LPS activation)”.

Question: And the “Quadrant (FIG. 5b)” value ([3]; microglia HTS, Table 6)?
Answer: Its value is “Q2”.

Question: What about the “Quadrant (FIG. 5b)” value [3, 8] of the same compound?
Answer: Its value is “Q2”.

Question: What about the “LPS % cell toxicity” value (primary rat microglia [4]; [9]) of the same compound?
Answer: Its value is 2%.

Question: What about the IC50 (primary rat microglia [4]; LPS assay) of the same compound?
Answer: The IC50 was > 20 µM.

Question: And the IC50 (primary rat microglia [4]; LPS assay, Table 6)?
Answer: Its IC50 is > 20 µM.

Question: What about the IC50 (primary rat microglia [4]; Table 3) of the same compound?
Answer: The IC50 was > 20 µM.

Question: And the “Fibrin % cell toxicity” value (primary rat microglia [5]; [10])?
Answer: The value was 2%.

Question: What about the IC50 (primary rat microglia [5]; Table 3) of the same compound?
Answer: The IC50 was > 20 µM.

Question: And the IC50 (primary rat microglia [5]; cFib assay)?
Answer: Its IC50 is > 20 µM.

Question: What about the IC50 (primary rat microglia [5]; cFib assay, Table 6) of the same compound?
Answer: Its IC50 is > 20 µM.

Question: Which inhibition at 10 µM [1, 13] does the source give for O=C(COc1ccc(Cl)cc1)N1CCN(Cc2ccc3c(c2)OCO3)CC1 [Fipexide Hydrochloride] here?
Answer: Its inhibition at 10 µM is -15%.

Question: What about the inhibition at 10 µM [2, 14] of the same compound?
Answer: The inhibition at 10 µM was 11%.

Question: And the “Quadrant (FIG. 5b)” value [3, 8]?
Answer: Its value is “Q4”.

Question: What about the “LPS % cell toxicity” value (primary rat microglia [4]; [15]) of the same compound?
Answer: The value was 0%.

Question: What about the “Fibrin % cell toxicity” value (primary rat microglia [5]; [16]) of the same compound?
Answer: Its value is 0%.
